Data taken from patent US20250236614A1, “BICYCLIC TETRAHYDROAZEPINE DERIVATIVES” (Hoffmann-La Roche Inc., priority 2022, published 2025).

Experiments:
DGK α kinase = DGK α kinase (Homo sapiens, UniProt P23743); test: In vitro DGK inhibition assay (ADP Glo) run by Reaction Biology Corp., DGK alpha; type: biochemical; conditions: isomer A, 2 nM kinase, 50 μM ATP, 500 uM DLG, 10-dose, 3-fold dilution starting at 1 μM, read-out: DGKalpha IC50
Protocol: (§1) DGK α and ζ kinase use ATP to phosphorylate the substrate 1,2-dilauroyl-sn-glycerol (DLG). ATP is converted to ADP as a result of this enzymatic reaction.
(§2) After the kinase reaction, an ATP-depletion reagent is added to terminate the kinase reaction and deplete any remaining ATP, leaving only ADP. Second, a detection reagent is added to simultaneously convert ADP to ATP and allow the newly synthesized ATP to be converted to light using a coupled luciferase/luciferin reaction.
(§3) DGK α and ζ kinase ADP Glo assays were ran by Reaction Biology Corp., 1 Great Valley Parkway, Suite 2, Malverm, 19355, PA, USA. Information provided by the service provider are the following: DGK α and ζ kinases were used at 2 nM final concentration. Reactions were carried out at 50 μM ATP. 500 uM of the substrate DLG (Dilauroyl-sn-glycerol) was used. Compounds were received at 10 mM DMSO stock solution and were tested in 10-dose IC50 duplicate with 3-fold serial dilution starting at 1 μM. A control compound, Calphostin C, was tested in 10-dose IC50 with 3-fold serial dilution starting at 100 μM.

[1] = molecular target: T1, hDGKzeta(1-928)-N-His (DGKZ) (Homo sapiens, UniProt Q13574); test: In vitro DGK inhibition assay (ADP-Glo, in house), DGK zeta; type: biochemical; conditions: isomer A; 2 nM DGK ζ, 50 μM ATP, 125 μM DLG in liposomes, 1 hour reaction; read-out: DGKzeta ADP Glo assay IC50
T1 construct: hDGKzeta(1-928)-N-His; His (N)
Protocol: (§4) DGK α and ζ kinase use ATP to phosphorylate the substrate 1,2-dilauroyl-sn-glycerol (DLG, incorporated in the liposomes). ATP is converted to ADP as a result of this enzymatic reaction.
as §2
(§5) Full length DGKA and Z were expressed in Sf21 insect cells by infecting the cells with the baculovirus stock at MOI of 2. Purification of both enzymes was performed as previously described by Takahashi et al., PeerJ, 2018 (Takahashi, D.; Sakane, F. Expression and purification of human diacylglycerolkinase alpha from baculovirus-infected insect cells for structural studies. PeerJ2018, 6, No. e5449).
(§6) A concentrated liposome solution was prepared in assay buffer without DTT and BSA: 2 mM of DLG in 21 mM of total liposome (2 mM DLG/8 mM PS/11 mM PC). The reaction mixtures contain the assay buffer with a final DLG concentration of 125 μM ATP concentrations of 25 μM (for DGKA assay) or 50 μM (for DGKZ assay). The reactions were started by addition of DGK α and ζ kinases at 4 nM and 2 nM final concentrations, respectively. After 1 hour reaction, the amount of ADP formed was detected with the ADP-Glo kinase assay (Promega) according to the manufacturer instructions. Compounds were added in 11I-points dose response, starting at 10 mM, 1:3 dilutions, with a final DMSO concentration of […]. The multidrop combi was used as a liquid handler and luminescence was read with 0.5 s by the envision reader (PE).

primary human T-cells = test: T-cell proliferation assay (CellTiter-Glo); type: cell-based; conditions: Homo sapiens, T-cell, 120 h, isomer A; for EC50: CD3 antibody-stimulated T-cells, CellTiter-Glo after 5 days, read-out: Tcell Proliferation CD3 EC50; for Emax: CD3 condition, 5 days, 20 μM reference compound A1 = 100%, DMSO neutral control, read-out: Emax proliferation (% activation)
Protocol: Expanded primary human T-cells are thawed and cultured in RPMI 1640 (Gibco, #61870-010)+5% human serum (HS, Sigma, #H3667)+1 mM Sodium Pyruvate (Gibco, #11360-039)+50 μM 2-mercaptoethanol (Gibco, #31350-010) and 1× Pen-Strep (Life Technologies, #15140122) medium at density of 2 Mio/ml for 3 hours in 5% CO2, 37° C. and 95% humidity. For coating of plates, PBS++ only or PBS++ with CD3 antibody (concentration depending on donor and determined by CD3 titrations) is added 100 μl/well to Poly-D Lysine coated 96-well plates. Plates are sealed and incubated at room temperature for 3 hours on a table-top rocking platform. After incubation, plates are washed once with PBS−− and filled with 40 μl/well culture medium only. Compounds are then added (see next section) to medium only plates. After 3 hours of culturing the T-cells, cells are filtered through a cell strainer (Miltenyi Biotech, #130-041-407), counted again and concentration is adjusted to 1.25 Mio/ml.
Cells are then seeded 80 μl/well to the 40 μl/well including dispensed compounds according to plate layout. By adding cells, compounds are further diluted 1:3, and resulting in 100k cells/120 μl/well. After 48 hours 40 μl of supernatant is collected carefully from the top while not disturbing the cells. Cells are assessed for proliferation 5 days later by measuring […] using CellTiterGlo (Promega).
Compounds were added in a 5 or 6 pt dose response with the Tecan D300e Digital Dispenser, all conditions 3 times more concentrated than the end-concentration, since cells are added afterwards (80 μl cells to 40 μl prepared medium with treatment). The DR was starting at 20 μM or 10 μM final top concentration and a dilution factor of 3.333. The positive control was the reference compound A1 that was added in a dose response as well, additionally to 3 wells of only 20 μM representing the positive stimulator control. All wells were normalized with DMSO to a final concentration of 0.6% (0.2% end-concentration).
After 5 days, for detection of ATP which is directly proportional to the number of cells present per well, the CellTiter-Glo® 2.0 Reagent is used. After visual control for toxicity or precipitations of the tested compounds, the plates are equilibrated to room temperature for 45 minutes. CellTiter-Glo® 2.0 Reagent is equilibrated to room temperature as well. After equilibration, an equal amount of CellTiter-Glo reagent is added to the cells (80 μl/well) with an electronic multichannel pipette. Plates are placed on a rocking platform for 15 minutes at room temperature. After incubation, the bottom of the plates is sealed with backing tape. Luminescence is measured with PHERAstar FSX (interval time 0.5 sec, gain 3000, focal height 15 mm) and exported as CSV file for analysis in Genedata screener.
CD3 and PBS plates were analysed separately in Genedata Screener using Roche Normalization PCT_POS_CTRL with DMSO set as Neutral Control and 20 μM of the reference compound A1 set as Stimulator Control/100%.
For CD3 conditions EC50 and Emax of the fitted sigmoidal curve were reported. If no curve could be fitted, the EC50 was reported as blank field and the Emax was based on individual data points. […] Compounds which activate unstimulated cells (see IL2 measurements) or compounds which negatively affected viability were flagged.

DGK ζ kinase = DGK ζ kinase (Homo sapiens, UniProt Q13574); test: In vitro DGK inhibition assay (ADP Glo) run by Reaction Biology Corp., DGK zeta; type: biochemical; conditions: isomer A, 2 nM kinase, 50 μM ATP, 500 uM DLG, 10-dose, 3-fold dilution starting at 1 μM, read-out: DGKzeta IC50
Protocol: as §1, §2, §3

[2] = molecular target: T2, hDGKalpha(1-735)-N-His (DGKA) (Homo sapiens, UniProt P23743); test: In vitro DGK inhibition assay (ADP-Glo, in house), DGK alpha; type: biochemical; conditions: isomer A; 4 nM DGK α, 25 μM ATP, 125 μM DLG in liposomes, 1 hour reaction; read-out: DGKalpha ADP Glo assay IC50
T2 construct: hDGKalpha(1-735)-N-His; His (N)
Protocol: as §4, §2, §5, §6

T1 sequence (Q13574 whole entry): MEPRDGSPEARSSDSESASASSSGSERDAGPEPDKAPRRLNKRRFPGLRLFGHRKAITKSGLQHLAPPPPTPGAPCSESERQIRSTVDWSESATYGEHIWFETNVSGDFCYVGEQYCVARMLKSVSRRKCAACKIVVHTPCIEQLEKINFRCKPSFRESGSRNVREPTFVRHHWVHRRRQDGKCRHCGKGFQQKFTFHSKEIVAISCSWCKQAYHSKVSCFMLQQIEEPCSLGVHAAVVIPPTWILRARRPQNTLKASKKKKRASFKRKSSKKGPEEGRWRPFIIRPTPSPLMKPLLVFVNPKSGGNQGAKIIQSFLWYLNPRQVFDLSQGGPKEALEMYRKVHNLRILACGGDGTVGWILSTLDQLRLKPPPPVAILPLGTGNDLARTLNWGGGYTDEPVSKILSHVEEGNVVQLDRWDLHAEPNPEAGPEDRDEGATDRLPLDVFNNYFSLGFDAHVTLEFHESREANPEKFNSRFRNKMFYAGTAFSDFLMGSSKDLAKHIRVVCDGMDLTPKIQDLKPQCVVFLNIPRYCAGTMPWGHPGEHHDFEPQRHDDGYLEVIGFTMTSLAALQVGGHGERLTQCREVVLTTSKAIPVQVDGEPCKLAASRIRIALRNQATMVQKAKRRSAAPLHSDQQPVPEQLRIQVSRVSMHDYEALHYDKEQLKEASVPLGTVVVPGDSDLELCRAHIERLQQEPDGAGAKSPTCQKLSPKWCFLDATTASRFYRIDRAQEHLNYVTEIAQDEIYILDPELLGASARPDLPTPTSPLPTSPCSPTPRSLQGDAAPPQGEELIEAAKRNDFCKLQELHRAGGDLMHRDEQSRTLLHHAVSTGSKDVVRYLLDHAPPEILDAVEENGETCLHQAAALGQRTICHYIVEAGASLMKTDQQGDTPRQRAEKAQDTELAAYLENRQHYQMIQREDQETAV
T2 sequence (P23743 whole entry): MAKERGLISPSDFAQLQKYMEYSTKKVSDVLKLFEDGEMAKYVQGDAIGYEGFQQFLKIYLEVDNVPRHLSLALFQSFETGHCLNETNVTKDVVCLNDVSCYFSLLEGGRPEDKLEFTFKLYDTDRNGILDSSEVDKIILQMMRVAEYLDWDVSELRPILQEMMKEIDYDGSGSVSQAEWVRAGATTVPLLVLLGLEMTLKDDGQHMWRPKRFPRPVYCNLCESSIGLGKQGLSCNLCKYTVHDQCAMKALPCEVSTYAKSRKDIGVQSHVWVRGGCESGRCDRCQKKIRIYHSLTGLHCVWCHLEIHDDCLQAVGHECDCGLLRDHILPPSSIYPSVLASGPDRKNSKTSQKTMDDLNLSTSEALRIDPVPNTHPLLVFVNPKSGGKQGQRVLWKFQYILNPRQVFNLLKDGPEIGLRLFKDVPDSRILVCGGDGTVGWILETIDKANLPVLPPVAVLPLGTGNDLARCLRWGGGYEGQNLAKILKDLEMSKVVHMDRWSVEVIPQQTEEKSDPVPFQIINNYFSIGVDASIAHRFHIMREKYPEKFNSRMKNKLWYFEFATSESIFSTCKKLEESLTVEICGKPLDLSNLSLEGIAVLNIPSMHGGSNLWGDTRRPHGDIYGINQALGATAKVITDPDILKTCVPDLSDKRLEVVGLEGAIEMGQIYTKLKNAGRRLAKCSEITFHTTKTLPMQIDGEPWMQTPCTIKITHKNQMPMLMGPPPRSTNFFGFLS
DGK ζ kinase, sequence (Q13574 whole entry): as the sequence (Q13574 whole entry) above
DGK α kinase, sequence (P23743 whole entry): as the sequence (P23743 whole entry) above

Structure (SMILES) | IC50 (DGK α kinase) [µM] | IC50 [1] [µM] | IC50 (DGK ζ kinase) [µM] | IC50 [2] [µM] | EC50 (primary human T-cells) [µM] | Emax (primary human T-cells) [%]
CC(C)(C#N)c1nnc(-c2cc3c(cc2F)C(F)(F)C[C@@H](N)C(=O)N3Cc2ccc(-n3cc(OC(F)(F)F)cn3)cc2)o1 (single isomer, unassigned) [Example 43] |  |  |  |  | 0.0234 | 105
CC(C)(C#N)c1nnc(-c2cc3c(cc2F)C(F)(F)C[C@@H](N)C(=O)N3Cc2ccc(-n3cc(C(F)(F)F)cn3)cc2F)o1 (single isomer, unassigned) [Example 44] |  |  |  |  | 1.46 | 126
CC(C)(C#N)c1nnc(-c2cc3c(cc2F)C(F)(F)C[C@@H](N)C(=O)N3Cc2ccc(-n3cc(C(F)(F)F)cn3)nc2F)o1 (single isomer, unassigned) [Example 45] |  |  |  |  | 2.94 | 67

Second part, led by results:

IC50 (DGK α kinase) [µM] | IC50 [1] [µM] | IC50 (DGK ζ kinase) [µM] | IC50 [2] [µM] | Structure (SMILES) | EC50 (primary human T-cells) [µM] | Emax (primary human T-cells) [%]
0.0069 | 1.25 | 0.0206 | 3.31 | CC(C)(C#N)c1nnc(-c2cc3c(cc2F)C(F)(F)C[C@@H](N)C(=O)N3Cc2ccc(Oc3ccccc3)cc2)o1 (single isomer, unassigned) [Example 11] | 0.193 | 88
 | > 62.5 |  | > 62.5 | CC(C)(C)c1cncc(-c2cc3c(cc2F)C(F)(F)C[C@@H](N)C(=O)N3Cc2ccc(Cl)cc2)c1 (single isomer, unassigned) [Example 18] | 0.666 | 52
 | 6.75 |  | 17.8 | CC(C)(C#N)c1nnc(-c2cc3c(cc2F)C(F)(F)C[C@@H](N)C(=O)N3Cc2ccc(-n3cc(C(F)(F)F)cn3)nc2)o1 (single isomer, unassigned) [Example 46] | 0.542 | 87
 | 2.99 |  | 23.7 | CC(C)(C#N)c1nnc(-c2cc3c(cc2F)C(F)(F)C[C@@H](N)C(=O)N3Cc2ccc(-n3cc(C(F)(F)F)cn3)c(F)c2)o1 (single isomer, unassigned) [Example 47] | 0.496 | 98
 | 4.92 |  | 1.51 | CC(C)(C#N)c1nnc(-c2cc3c(cc2F)C(F)(F)C[C@@H](N)C(=O)N3Cc2ccc(-c3cnn(C(F)(F)F)c3)cc2)o1 (single isomer, unassigned) [Example 48] | 0.163 | 171
